This is an account of results in patent EP1873150A1, “Fluorinated indoleamides useful as ligands of the ORL-1 receptor” (NIKEM RESEARCH S.R.L., priority 2006, dated 2008).

One experiment concerns the target T1, CYP3A4 (Homo sapiens, UniProt P08684).
T1 construct: purchased Gentest Corporation, Woburn, MA (Supersomes); host or cells: baculovirus-insect cells
Kind of experiment: Interaction with Cytochrome P450 isoenzymes: CYP3A4. The experiment is classed as in vitro ADME. The following applies: Supersomes expressing human CYP3A4, substrate BFC, fluorometric; read-out: CYP450 interaction (IC50, uM) 3A4. Here is the method: (§1) The assay was performed in a 96-well microtiter plates as described in Stresser et al., Drug Metab. Dispos. 28, 1440 (2000). Microsomes from baculovirus-insect cells (Supersomes, Gentest Corporation, Woburn, MA) expressing human cytochrome P450 isoforms (CYP1A2, CYP2C9, CYP2C19, CYP2D6 and CYP3A4) were utilized. Test compounds or standard inhibitors (dissolved in DMSO or acetonitrile) were serially diluted in a solution containing 16.3 uM NADP^+, 0.83 mM glucose-6-phosphate, 0.83 mM MgCl2, 0.4 U/mL of glucose-6-phosphate dehydrogenase and 0.1 mg/mL microsomal protein prepared from wild-type baculovirus-infected insect cells. Appropriate control wells without inhibitor and without microsomes were also added. The plates were then pre-warmed at 37°C for 10 min, and the reaction was started by adding pre-warmed enzyme/substrate mix (cytochrome P450 isoforms with their specific substrates in a 0.35 M potassium phosphate buffer at pH 7.4). Specific substrates were 3-cyano-7-ethoxycoumarin (CEC) for CYP1A2 and CYP2C19, 7-methoxy-4-trifluoromethylcoumarin (MFC) or dibenzylfluorescein (DBF) for CYP2C9, 3-[2-(N,N-diethyl-N-methylamino)ethyl]-7-methoxy-4-methylcoumarin (AMMC) for CYP2D6 and 7-benzyloxy-4-(trifluoromethyl)-coumarin (BFC) for CYP3A4. Reaction was terminated at various times, depending on the assays, by addition of a 4:1 acetonitrile:0.5 M Tris base solution. Known inhibitors for each isoenzyme (furafylline for CYP1A2, sulfaphenazole for CYP2C9, tranylcypromine for CYP2C19, quinidine for CYP2D6 and ketoconazole for CYP3A4) were tested in all assays as positive controls. Plates were read on a fluorometer (Fluoroskan Ascent, ThermoElectron Corporation, Helsinki, Finland) at the appropriate emission/excitation wavelengths. Median inhibitory concentration (IC50) was determined by nonlinear regression (GraFit software, Erithacus Software, Horley, UK).

The target in another experiment is T2, CYP1A2 (Homo sapiens, UniProt P05177).
T2 construct: purchased Gentest Corporation, Woburn, MA (Supersomes); host or cells: baculovirus-insect cells
T2 sequence (P05177 1-516): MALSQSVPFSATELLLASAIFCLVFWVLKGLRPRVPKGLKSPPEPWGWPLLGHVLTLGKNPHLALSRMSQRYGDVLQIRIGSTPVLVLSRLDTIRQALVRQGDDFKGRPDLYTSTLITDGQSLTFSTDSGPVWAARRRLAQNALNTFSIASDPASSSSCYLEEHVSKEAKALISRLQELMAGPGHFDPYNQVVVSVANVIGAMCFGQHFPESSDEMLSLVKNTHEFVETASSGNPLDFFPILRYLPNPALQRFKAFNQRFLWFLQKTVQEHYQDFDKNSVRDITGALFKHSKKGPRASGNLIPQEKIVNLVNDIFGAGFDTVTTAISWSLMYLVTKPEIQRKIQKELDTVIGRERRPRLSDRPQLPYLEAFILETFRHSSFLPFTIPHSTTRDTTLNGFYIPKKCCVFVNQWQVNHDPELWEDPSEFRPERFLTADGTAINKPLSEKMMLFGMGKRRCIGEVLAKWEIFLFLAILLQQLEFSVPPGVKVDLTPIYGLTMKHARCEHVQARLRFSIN
The experiment can be described thus: Interaction with Cytochrome P450 isoenzymes: CYP1A2. Particulars: Supersomes expressing human CYP1A2, substrate CEC, fluorometric; read-out: CYP450 interaction (IC50, uM) 1A2. It is filed as in vitro ADME. Here is the method:
as §1

The target of the next experiment is T3, CYP2D6 (Homo sapiens, UniProt P10635).
T3 construct: purchased Gentest Corporation, Woburn, MA (Supersomes); host or cells: baculovirus-insect cells
The experiment can be described thus: Interaction with Cytochrome P450 isoenzymes: CYP2D6. The experiment is classed as in vitro ADME. Particulars: Supersomes expressing human CYP2D6, substrate AMMC, fluorometric; read-out: CYP450 interaction (IC50, uM) 2D6. Here is the method: as §1

The next experiment addresses T4, CYP2C9 (Homo sapiens, UniProt P11712).
T4 construct: purchased Gentest Corporation, Woburn, MA (Supersomes); host or cells: baculovirus-insect cells
The experiment can be described thus: Interaction with Cytochrome P450 isoenzymes: CYP2C9. The experiment is classed as in vitro ADME. Particulars: Supersomes expressing human CYP2C9, substrate MFC or DBF, fluorometric; read-out: CYP450 interaction (IC50, uM) 2C9. Here is the method:
as §1

A further experiment concerns the target T5, CYP2C19 (Homo sapiens, UniProt P33261).
T5 construct: purchased Gentest Corporation, Woburn, MA (Supersomes); host or cells: baculovirus-insect cells
Kind of experiment: Interaction with Cytochrome P450 isoenzymes: CYP2C19. The experiment is classed as in vitro ADME. Particulars: Supersomes expressing human CYP2C19, substrate CEC, fluorometric; read-out: CYP450 interaction (IC50, uM) 2C19. Here is the method: as §1

The target in another experiment is ORL-1 receptor (Homo sapiens, UniProt P41146). Kind of experiment: ORL-1 receptor binding studies, radioligand [3H]-AcRYYRWK-NH2. Here is the method:
The receptor binding studies were carried out on 96-well plates; the incubation medium was Tris HCl pH 7.4 (4°C) containing MgCl2 (5 mM), EGTA (0.2 mM), BSA (0.1 %), with a final volume of […], using as radioligand [^3H]-AcRYYRWK-NH2 (Amersham, 103 Ci/mmol). The samples were incubated at 37°C for 120 min. and were then filtered off via Whatman GF/B filters pre-treated with 0.2% polyethylenimine. The filters were washed three times with Tris HCl buffer pH 7.4 (4°C). The radioactivity present on the filters was measured using a Packard Top Count microplate scintillation counter.

[1] abbreviates: radioligand [3H]-AcRYYRWK-NH2, 37°C, 120 min, read-out: ORL-1 Binding affinity (Ki).

Read-outs that look alike come from different tables or passages of the source.

T3 sequence (P10635 whole entry): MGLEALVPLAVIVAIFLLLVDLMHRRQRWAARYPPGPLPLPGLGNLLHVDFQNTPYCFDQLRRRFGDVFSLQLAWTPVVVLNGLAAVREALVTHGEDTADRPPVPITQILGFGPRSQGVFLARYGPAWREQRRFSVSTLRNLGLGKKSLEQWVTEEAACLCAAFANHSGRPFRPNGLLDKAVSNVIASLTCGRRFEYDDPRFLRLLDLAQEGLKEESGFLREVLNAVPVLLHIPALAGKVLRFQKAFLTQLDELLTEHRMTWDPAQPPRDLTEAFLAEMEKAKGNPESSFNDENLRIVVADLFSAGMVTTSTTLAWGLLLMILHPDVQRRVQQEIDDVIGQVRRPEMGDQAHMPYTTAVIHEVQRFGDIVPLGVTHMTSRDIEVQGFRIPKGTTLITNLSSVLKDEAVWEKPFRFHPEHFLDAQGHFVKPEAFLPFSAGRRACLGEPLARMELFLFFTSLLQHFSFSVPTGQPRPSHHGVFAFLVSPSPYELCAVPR
Sequence of ORL-1 receptor (P41146 whole entry): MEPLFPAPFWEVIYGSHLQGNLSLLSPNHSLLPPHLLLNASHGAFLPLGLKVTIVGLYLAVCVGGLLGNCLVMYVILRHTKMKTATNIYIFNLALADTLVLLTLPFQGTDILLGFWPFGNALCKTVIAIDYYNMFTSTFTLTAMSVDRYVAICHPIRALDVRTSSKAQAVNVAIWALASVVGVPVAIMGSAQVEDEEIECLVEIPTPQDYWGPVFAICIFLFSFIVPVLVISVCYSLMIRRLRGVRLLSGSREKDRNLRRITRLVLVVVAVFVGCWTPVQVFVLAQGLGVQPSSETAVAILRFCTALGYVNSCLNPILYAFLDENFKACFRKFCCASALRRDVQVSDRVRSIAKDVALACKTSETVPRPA
T4 sequence (P11712 whole entry): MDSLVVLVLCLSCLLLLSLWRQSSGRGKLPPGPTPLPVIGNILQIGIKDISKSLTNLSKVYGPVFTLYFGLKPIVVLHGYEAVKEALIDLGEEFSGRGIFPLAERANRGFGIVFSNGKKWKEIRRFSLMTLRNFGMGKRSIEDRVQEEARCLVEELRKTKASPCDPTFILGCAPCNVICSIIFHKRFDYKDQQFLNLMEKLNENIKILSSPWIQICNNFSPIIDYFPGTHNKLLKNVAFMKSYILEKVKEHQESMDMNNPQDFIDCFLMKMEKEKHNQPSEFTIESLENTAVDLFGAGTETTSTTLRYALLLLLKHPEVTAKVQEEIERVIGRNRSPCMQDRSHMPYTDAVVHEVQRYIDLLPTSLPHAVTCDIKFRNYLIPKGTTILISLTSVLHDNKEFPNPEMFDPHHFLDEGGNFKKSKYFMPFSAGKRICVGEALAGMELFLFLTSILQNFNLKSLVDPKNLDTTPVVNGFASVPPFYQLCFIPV
T1 sequence (P08684 whole entry): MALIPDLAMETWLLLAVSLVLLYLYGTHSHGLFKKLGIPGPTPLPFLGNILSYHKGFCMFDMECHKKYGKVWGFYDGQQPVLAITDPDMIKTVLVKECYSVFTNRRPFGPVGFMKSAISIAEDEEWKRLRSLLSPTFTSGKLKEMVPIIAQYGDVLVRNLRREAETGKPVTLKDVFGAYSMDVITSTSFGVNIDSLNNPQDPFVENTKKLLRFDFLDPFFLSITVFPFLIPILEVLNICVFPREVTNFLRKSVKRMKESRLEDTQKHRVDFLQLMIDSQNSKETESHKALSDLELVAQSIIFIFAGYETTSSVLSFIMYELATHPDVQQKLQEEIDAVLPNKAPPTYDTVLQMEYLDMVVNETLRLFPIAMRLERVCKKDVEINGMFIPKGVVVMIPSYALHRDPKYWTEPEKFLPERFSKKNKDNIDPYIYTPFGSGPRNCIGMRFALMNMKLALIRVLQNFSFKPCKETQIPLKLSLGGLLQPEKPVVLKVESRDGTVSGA
T5 sequence (P33261 whole entry): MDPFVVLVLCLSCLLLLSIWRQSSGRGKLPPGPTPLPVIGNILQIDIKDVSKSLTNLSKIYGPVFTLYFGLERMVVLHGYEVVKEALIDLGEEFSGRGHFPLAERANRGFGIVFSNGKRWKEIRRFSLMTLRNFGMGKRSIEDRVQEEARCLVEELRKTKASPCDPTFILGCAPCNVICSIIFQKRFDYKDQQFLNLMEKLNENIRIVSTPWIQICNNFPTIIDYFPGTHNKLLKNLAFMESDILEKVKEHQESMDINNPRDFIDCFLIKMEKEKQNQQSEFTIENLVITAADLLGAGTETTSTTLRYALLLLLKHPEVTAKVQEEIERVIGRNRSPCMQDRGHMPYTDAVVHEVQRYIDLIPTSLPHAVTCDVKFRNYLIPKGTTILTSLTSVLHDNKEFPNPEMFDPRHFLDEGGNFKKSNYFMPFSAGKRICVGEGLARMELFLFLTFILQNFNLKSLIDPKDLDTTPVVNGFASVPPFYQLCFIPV

What is called IC50 is the concentration at which inhibition is half-maximal. Regarding `Fc1cccc(F)c1C1CCN(Cc2c(-c3ccccc3)[nH]c3ccccc23)CC1` [53 (W02005005411), reference compound], the IC50 at CYP3A4 is 13 µM; at CYP1A2, 11.8 µM; at CYP2D6, under 0.1 µM; on CYP2C9, 10.7 µM; on CYP2C19 it was 17.4 µM.
What is called Ki is the dissociation constant of the complex between target and ligand, obtained from inhibition or displacement. With `CC(=O)N(C)C1CCN(C(=O)c2[nH]c3ccccc3c2CN2CCC(c3c(F)cccc3Cl)CC2)C1` (stereo not shown) [Example 3, N-(1-{3-[4-(2-Chloro-6-fluoro-phenyl)-piperidin-1-ylmethyl]-1 H-indole-2-carbonyl}-pyrrolidin-3-yl)-N-methyl-acetamide], the IC50 at CYP3A4 was 54.7 µM; at CYP1A2, over 100 µM; on CYP2D6 it was 8.6 µM; on CYP2C9, 25.9 µM; at CYP2C19, 47.5 µM. Moreover, on ORL-1 receptor (setting [1]), the Ki was found to be 4.2 nM.
For the compound `O=C(c1[nH]c2ccccc2c1CN1CCC(c2c(F)cccc2F)CC1)N1CCN(CCOCCO)CC1` [Example 6, {3-[4-(2,6-Difluoro-phenyl)-piperidin-1-ylmethyl]-1H-indol-2-yl}-{4-[2-(2-hydroxy-ethoxy)-ethyl]-piperazin-1-yl}-methanone], the 50% inhibitory concentration (IC50) is 98.2 µM on CYP3A4; over 100 µM on CYP1A2; 5.1 µM at CYP2D6; over 100 µM on CYP2C9; over 100 µM on CYP2C19. For the same compound, the inhibition constant Ki on ORL-1 receptor (setting [1]) amounted to 34 nM.
Consider `NC(=O)Cn1c(C(=O)N2CCOCC2)c(CN2CCC(c3c(F)cccc3Cl)CC2)c2ccccc21` [Example 7, 2-[3-[4-(2-Chloro-6-fluoro-phenyl)-piperidin-1-ylmethyl]-2-(morpholine-4-carbonyl)-indol-1-yl]-acetamide], for which the IC50 was 13.3 µM on CYP3A4; over 100 µM at CYP1A2; 16.8 µM on CYP2D6; 20.2 µM at CYP2C9; 25.1 µM on CYP2C19. In addition, the Ki at ORL-1 receptor (setting [1]) came out at 4.8 nM.
For `NC(=O)Cn1c(C(=O)N2CCOCC2)c(CN2CCC(c3c(F)cccc3F)CC2)c2ccccc21` [Example 8, 2-[3-[4-(2,6-Difluoro-phenyl)-piperidin-1-ylmethyl]-2-(morpholine-4-carbonyl)-indol-1-yl]-acetamide], the IC50 at CYP3A4 stood at 25.6 µM; on CYP1A2 it was 86 µM; at CYP2D6 it was 6.2 µM; at CYP2C9, 31.2 µM; at CYP2C19, 70.1 µM.
Consider `Cc1c(CN2CCC(c3c(F)cccc3Cl)CC2)c2ccccc2n1CC(=O)NC1CCN(C)CC1` [Example 11, 2-{3-[4-(2-Chloro-6-fluoro-phenyl)-piperidin-1-ylmethyl]-2-methyl-indol-1-yl}-N-(1-methyl-piperidin-4-yl)-acetamide], for which the half-maximal inhibitory concentration (IC50) at CYP3A4 is 9.6 µM; on CYP1A2, over 100 µM; on CYP2D6, 20.7 µM; at CYP2C9 it was over 100 µM; at CYP2C19, 47.4 µM. Also, the inhibition constant Ki at ORL-1 receptor was found to be 5.5 nM.
Consider `O=C(Cn1c(-c2ccccc2)c(CN2CCC(c3c(F)cccc3Cl)CC2)c2ccccc21)N1CCOCC1` [Example 12, 2-{3-[4-(2-Chloro-6-fluoro-phenyl)-piperidin-1-ylmethyl]-2-phenyl-indol-1-y}-1-morpholin-4-yl-ethanone], for which the 50% inhibitory concentration (IC50) at CYP3A4 is 18.2 µM; at CYP1A2, over 100 µM; on CYP2D6 it was 36.6 µM; at CYP2C9, over 100 µM; on CYP2C19 it was over 100 µM. Besides, on ORL-1 receptor (setting [1]), the Ki is 2.8 nM.
With `O=C(Cn1c(-c2ccccc2)c(CN2CCC(c3c(F)cccc3F)CC2)c2ccccc21)N1CCOCC1` [Example 13, 2-{3-[4-(2,6-Difluoro-phenyl)-piperidin-1-ylmethyl]-2-phenyl-indol-1-yl}-l-morpholin-4-yl-ethanone], the IC50 is 38.1 µM on CYP3A4; over 100 µM at CYP1A2; 94.6 µM at CYP2D6; 98.6 µM on CYP2C9; 62.6 µM at CYP2C19. Besides, at ORL-1 receptor, the inhibition constant (Ki) was found to be 18 nM.
For the compound `CN1CCN(C(=O)Cn2c(-c3ccccc3)c(CN3CCC(c4c(F)cccc4F)CC3)c3ccccc32)CC1` [Example 15, 2-{3-[4-(2,6-Difluoro-phenyl)-piperidin-1-ylmethyl]-2-phenyl-indol-1-yl}-1-(4-methyl-piperazin-1-yl)-ethanone], the concentration for half-maximal inhibition (IC50) is 6.2 µM at CYP3A4; over 100 µM at CYP1A2; 34.7 µM on CYP2D6; 74.4 µM at CYP2C9; 38.3 µM on CYP2C19. At ORL-1 receptor (setting [1]), the inhibitory constant (Ki) worked out at 8.2 nM.
